Source: patent EP1021444B1, “3-CARBOXAMIDE DERIVATIVES OF 5H-PYRROLO[2,1-c][1,4]-BENZODIAZEPINES” (Wyeth, priority 1996, dated 1998)
Where a name gives a salt, the structure may show the parent alone. Read-outs that look alike come from different tables or passages of the source.

How the values were obtained:
[1] = test system: Endogenous Arginine Vasopressin Antidiuretic (V2) Response; assay: Antagonism of endogenous arginine vasopressin antidiuretic (V2) response in conscious rats (urine volume); format: in vivo, Sprague-Dawley rats; conditions: 10 mg/kg rat p.o.; urine collected for four hours after dosing; no water or food during test
Description: Effects on the Antagonism of Endogenous Arginine Vasopressin Antidiuretic (V2) Response in Conscious Rats with Free Access to Water Drinking Before but not During the Experiment:
Male or female normotensive Sprague-Dawley rats (Charles River Laboratories, Inc., Kingston, NY) of 400-450 g body weight were supplied with Laboratory Rodent Feed #5001 (PMI Feeds, Inc., Richmond, IN) and water ad libitum. On the day of test, rats were placed individually into metabolic cages equipped with stainless steel screens (to separate the feces from the urine) and funnels for collection of urine. Vehicle or reference agent was given at various oral doses. During the test, rats were not provided with water or food. Urine was collected for four hours after dosing of the test compound. At the end of four hours, urine volume was measured. Urinary osmolality was determined using a Fiske One-Ten Osmometer (Fiske Associates, Norwood, MA, 02062). or an Advanced CRYOMATIC Osmometer, Model 3C2 (Advanced Instruments, Norwood, MA). Determinations of Na^+, K^+ and Cl^- ion were carried out using ion specific electrodes in a Beckman SYNCHRON EL-ISE Electrolyte System analyzer. In the following results, increased urine volume and decreased osmolality relative to AVP-control indicates activity.

[2] = molecular target: T1, Human V2 Vasopressin Receptor (Homo sapiens, UniProt P30518); assay: Binding to membranes of mouse fibroblast cell line (LV-2) transfected with the cDNA expressing the human V2 vasopressin receptor
T1 construct: expressed in transfected cells; host or cells: mouse fibroblast cell line LV-2 (membrane preparation)
Procedure: Binding to Membranes of Mouse Fibroblast Cell Line (LV-2) Transfected with the cDNA Expressing the Human V2 Vasopressin Receptor
Flasks of 175 ml capacity, containing attached cells grown to confluence, are cleared of culture medium by aspiration. The flasks containing the attached cells are rinsed with 2x5 ml of phosphate buffered saline (PBS) and the liquid aspirated off each time. Finally, 5 ml of an enzyme free dissociation Hank's based solution (Specialty Media, Inc., Lafayette, NJ) is added and the flasks are left undisturbed for 2 min. The content of all flasks is poured into a centrifuge tube and the cells pelleted at 300 x g for 15 min. […] The homogenate is centrifuged at 1500 x g for 10 min to remove ghost membranes. The supernatant fluid is centrifuged at 100,000 x g for 60 min to pellet the receptor protein. Upon completion, the pellet is resuspended in a small volume of 50.0 mM Tris.HCl buffer, pH 7.4. The protein content is determined by the Lowry method and the receptor membranes are suspended in 50.0 mM Tris.HCl buffer containing 0.1 mM phenylmethylsulfonylfluoride (PMSF) and 0.2% bovine serum albumin (BSA) to give 2.5 mg receptor protein per ml of suspension.
For binding experiments, the following is added in ml volume to wells of a 96 well format of a microtiter plate: 100.0 ml of 100.0 mM Tris.HCl buffer containing 0.2% heat inactivated BSA, 10.0 mM MgCl2 and a mixture of protease inhibitors: leupeptin, 1.0 mg %; aprotinin, 1.0 mg %; 1,10-phenanthroline, 2.0 mg %; trypsin inhibitor, 10.0 mg % and 0.1 mM PMSF, 20.0 ml of [^3H] Arginine^8, vasopressin (S.A. 75.0 Ci/mmole) at 0.8 nM and the reaction initiated by the addition of 80.0 ml of tissue membranes (200.0 mg tissue protein). The plates are left undisturbed on the bench top for 120 min to reach equilibrium. Non specific binding is assessed in the presence of 1.0 mM of unlabeled ligand, added in 20 ml volume. For test compounds, these are solubilized in 50% dimethylsulfoxide (DMSO) and added in 20.0 ml volume to a final incubation volume of […]. Upon completion of binding, the content of each well is filtered off, using a Brandel® cell Harvester (Gaithersburg, MD). The radioactivity trapped on the filter disk by the ligand-receptor complex is assessed by liquid scintillation counting in a Packard LS Counter, with an efficiency of 65% for tritium. The data are analyzed for IC50 values by the LUNDON-2 program for competition (LUNDON SOFTWARE, OH).

[3] = read-out: Vasopressin Human V2 Receptor Binding

T1 sequence (P30518 whole entry): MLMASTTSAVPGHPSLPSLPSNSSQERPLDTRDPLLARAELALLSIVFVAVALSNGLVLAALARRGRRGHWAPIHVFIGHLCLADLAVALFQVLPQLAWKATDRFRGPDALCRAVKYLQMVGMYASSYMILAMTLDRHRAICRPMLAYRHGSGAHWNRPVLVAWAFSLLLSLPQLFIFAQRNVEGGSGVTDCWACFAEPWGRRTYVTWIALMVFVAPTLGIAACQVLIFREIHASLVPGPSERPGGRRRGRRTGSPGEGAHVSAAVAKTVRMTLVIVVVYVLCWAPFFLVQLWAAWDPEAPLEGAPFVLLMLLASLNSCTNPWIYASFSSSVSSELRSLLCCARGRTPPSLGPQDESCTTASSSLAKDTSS

| Structure (SMILES) | Urine Volume (ml/4 hrs) [1] | IC50 [2, 3] | IC50 [2] |
| --- | --- | --- | --- |
| Cc1ccc(F)cc1C(=O)Nc1ccc(C(=O)N2Cc3ccc(C(=O)[O-])n3Cc3ccccc32)c(Cl)c1.[K+] [Example 2, 10-[2-Chloro-4-(5-fluoro-2-methyl-benzoylamino)-benzoyl]-10,11-dihydro-5H-pyrrolo[2,1-c][1,4]benzodiazepine-3-carboxylic acid, potassium salt (1:1)] | 11.5 ml/4 hrs | – | – |
| COc1cc(NC(=O)c2ccccc2-c2ccccc2)ccc1C(=O)N1Cc2ccc(C(=O)N3CCN(C)CC3)n2Cc2ccccc21 [Example 16] | 24.3 ml/4 hrs | – | – |
| Cc1ccc(F)cc1C(=O)Nc1ccc(C(=O)N2Cc3ccc(C(=O)NN(C)C)n3Cc3ccccc32)c(Cl)c1 [Example 3, N-{3-Chloro-4-[3-(N', N'-dimethyl-hydrazinocarbonyl)-5H,11H-pyrrolo[2,1-c][1,4]benzodiazepine-10-carbonyl]-phenyl}-5-fluoro-2-methyl-benzamide] | 22 ml/4 hrs | 0.015 µM | – |
| Cc1ccc(F)cc1C(=O)Nc1ccc(C(=O)N2Cc3ccc(C(=O)N[N+](C)(C)C)n3Cc3ccccc32)c(Cl)c1 [Example 4, 2-[[10-[2-Chloro-4-[(5-fluoro-2-methylbenzoyl)amino]benzoyl]-10,11-dihdro-5H-pyrrolo{2,1-c][1,4]benzodiazepin-3-yl]carbonyl]-1,1,1-trimethylhydrazinium iodide] | 9.2 ml/4 hrs | – | 0.06 µM |
| CN1CCN(NC(=O)c2ccc3n2Cc2ccccc2N(C(=O)c2ccc(NC(=O)c4ccccc4-c4ccccc4)cc2Cl)C3)CC1 [Example 13, Biphenyl-2-carboxylic acid{3-chloro-4-[3-(4-methyl-piperazine-1 aminocarbonyl)-5H,11H-pyrrolo[2,1-c][1,4]benzodiazepine-10-carbonyl]-phenyl}-amide.] | 16.8 ml/4 hrs | – | – |
| O=C(Nc1ccc(C(=O)N2Cc3ccc(C(=O)O)n3Cc3ccccc32)c(Cl)c1)c1ccccc1-c1ccccc1 [Example 7, 10-{4-[(Bipheny-2-carbonyl)-amino]-2-chloro-benzoyl)-10,11-dihydro-5H-benzo[e]pyrrolo[1,2-a][1,4] diazepine-3-carboxylic acid] | 19.2 ml/4 hrs | – | – |
| CN(C)CCNC(=O)c1ccc2n1Cc1ccccc1N(C(=O)c1ccc(NC(=O)c3ccccc3-c3ccccc3)cc1Cl)C2 [Example 14, 10-{4-[(Biphenyl-2-carbonyl)-amino]-2-chloro-benzoyl}-10,11-dihydro-5H-pyrrolo[2,1-c][1,4]benzodiazepine-3-carboxylic acid (2-dimethylamino-ethyl) -amide] | 11.3 ml/4 hrs | – | – |
| O=C(Nc1ccc(C(=O)N2Cc3ccc(C(=O)N4CCC(N5CCOCC5)CC4)n3Cc3ccccc32)c(Cl)c1)c1ccccc1-c1ccccc1 [Example 15, Biphenyl-2-carboxylic acid{3-chloro-4-[3-(4-morpholino-piperidine-1-carbonyl)-5H,11H-pyrrolo[2,1-c][1,4]benzodiazepine-10-carbonyl]-phenyl}-amide.] | – | – | 0.0107 µM |
| CN(C)NC(=O)c1ccc2n1Cc1ccccc1N(C(=O)c1ccc(NC(=O)c3ccccc3-c3ccccc3)cc1Cl)C2 [Example 8] | 40.9 ml/4 hrs | – | 0.0086 µM |
| O=C(O)CNC(=O)c1ccc2n1Cc1ccccc1N(C(=O)c1ccc(NC(=O)c3ccccc3-c3ccccc3)cc1Cl)C2 [Example 18, 10-{4-[(Biphenyl-2-carbonyl)-amino]-2-chloro-benzoyl}-10,11-dihydro-5H-pyrrolo[2,1-c][1,4]benzodiazepine-3-carboxylic acid (glycyl)-amide] | 7.8 ml/4 hrs | – | 0.0076 µM |
| O=C(Nc1ccc(C(=O)N2Cc3ccc(C(=O)N4CCC(N5CCCCC5)CC4)n3Cc3ccccc32)c(Cl)c1)c1ccccc1-c1ccccc1 [Example 11, Biphenyl-2-carboxylic acid{3-chloro-4-[3-(4-piperidinyl-piperidine-1-carbonyl)-5H,11H-pyrrolo[2,1-c][1,4]benzodiazepine-10-carbonyl]-phenyl}-amide.] | – | – | 0.0093 µM |
| COc1cc(NC(=O)c2ccccc2-c2ccccc2)ccc1C(=O)N1Cc2ccc(C(=O)NN(C)C)n2Cc2ccccc21 [Example 17] | 9.4 ml/4 hrs | – | – |
| CN(C)C1CCN(C(=O)c2ccc3n2Cc2ccccc2N(C(=O)c2ccc(NC(=O)c4ccccc4-c4ccccc4)cc2Cl)C3)CC1 [Example 12, Biphenyl-2-carboxylic acid{3-chloro-4-[3-(4-dimethylamino-piperidine-1-carbonyl)-5H,11H-pyrrolo[2,1-c][1,4]benzodiazepine-10-carbonyl]-phenyl}-amide.] | 21.4 ml/4 hrs | – | – |
| O=C(Nc1ccc(C(=O)N2Cc3ccc(C(=O)C(Cl)(Cl)Cl)n3Cc3ccccc32)c(Cl)c1)c1ccccc1-c1ccccc1 [Example 6] | – | – | 0.0056 µM |
| CN(C)CCN(C)C(=O)c1ccc2n1Cc1ccccc1N(C(=O)c1ccc(NC(=O)c3ccccc3-c3ccccc3)cc1Cl)C2 [Example 10, 10-{4-[(Biphenyl-2-carbonyl)-amino]-2-chloro-benzoyl}-10,11-dihydro-5H-pyrrolo[2,1-c][1,4]benzodiazepine-3-carboxylic acid (2-dimethylamino-ethyl)-methyl-amide] | 22.2 ml/4 hrs | 0.0055 µM | – |
| Cc1ccc(F)cc1C(=O)Nc1ccc(C(=O)N2Cc3ccc(C(=O)[N-][N+](C)(C)C)n3Cc3ccccc32)c(Cl)c1 [Example 5, 2-[[10-[2-Chloro-4-[(5-fluoro-2-methylbenzoyl)amino]benzoyl]-10,11-dihydro-5H-pyrrolo[2,1-c][1,4]benzodiazepin-3-yl]hydroxymethylene]-1,1,1-trimethylhydrazinium inner salt] | 9.1 ml/4 hrs | – | 0.06 µM |
| Cc1ccc(F)cc1C(=O)Nc1ccc(C(=O)N2Cc3ccc(C(=O)O)n3Cc3ccccc32)c(Cl)c1 [Example 1, 10-[2-Chloro-4-(5-fluoro-2-methyl-benzoylamino)-benzoyl]-10,11-dihydro-5H-pyrrolo[2,1-c][1,4]benzodiazepine-3-carboxylic acid] | 13.2 ml/4 hrs | 0.014 µM | – |
